Calls of active or inactive are those of the source.
Legend:
[1] = target: T1, Carboxy-terminal domain RNA polymerase II polypeptide A small phosphatase 1 (Homo sapiens, UniProt Q9GZU7); test: inhibitors of CTDSP1, concentration-response testing, biochemical assay, absorbance-based, actives from ultra-high-throughput screening (AID 540297); assay type: functional
T1 sequence (Q9GZU7 whole entry): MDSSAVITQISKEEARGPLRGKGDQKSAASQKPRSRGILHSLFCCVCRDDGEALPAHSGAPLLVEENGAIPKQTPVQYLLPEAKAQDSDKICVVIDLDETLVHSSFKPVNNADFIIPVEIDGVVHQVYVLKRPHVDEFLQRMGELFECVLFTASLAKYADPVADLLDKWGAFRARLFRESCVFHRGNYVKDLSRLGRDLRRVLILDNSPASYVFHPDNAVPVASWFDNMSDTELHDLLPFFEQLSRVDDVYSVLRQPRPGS

[2] = target: Nonstructural protein 1 (Influenza A virus, UniProt Q194T2); assay type: functional, Influenza A virus (A/California/07/2009(H1N1))
Sequence of Nonstructural protein 1 (Q194T2 whole entry): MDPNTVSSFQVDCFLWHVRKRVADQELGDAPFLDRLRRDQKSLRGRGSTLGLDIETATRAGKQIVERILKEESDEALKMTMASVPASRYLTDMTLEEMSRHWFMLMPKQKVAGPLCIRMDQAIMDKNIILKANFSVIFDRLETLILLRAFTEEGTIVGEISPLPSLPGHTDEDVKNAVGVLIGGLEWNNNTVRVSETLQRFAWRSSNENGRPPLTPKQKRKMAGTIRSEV

[3] = control 3'UTR Renilla luciferase suppression, dose response, counter-screen for Shn3 inhibitor project, cell-based, Clone20-Shn3RL, cherry-picked (AID 624133); assay type: functional
[4] = Shn3 3'UTR reporter inhibitors, dose response, cell-based, Clone20 osteoblasts, firefly luciferase, cherry-picked (AID 624132); assay type: functional;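 further: firefly luciferase luminescence from reporter carrying the Shn3 3'UTR in osteoblasts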
[5] = HepG2 cell cytotoxicity, dose response, cytotoxicity control for Shn3 inhibitor project, CellTiter-Glo, cherry-picked (AID 624134); assay type: functional, cell-based
[6] = cytotoxicity in HEK-293T cells, dose response, cytotoxicity control for TCR NF-kB inhibitor project, luminescence, T-cell screen hits (AID 489026); assay type: functional, cell-based;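 further: cells exposed to compound about 14 hours before the viability readout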
[7] = test system: P388/ADR; test: cells; assay type: functional; details: Mus musculus
[8] = test system: SN12K1; test: cells; assay type: functional; details: Homo sapiens
[9] = test system: P388; test: cells; assay type: functional; details: Mus musculus
[10] = target: Paired box protein Pax-8 (Homo sapiens, UniProt Q06710); test: inhibitors of PAX8-driven TPO luciferase reporter, dose response, RMG-I cells, cherry-pick (AID 687027); assay type: functional, cell-based;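 further: luciferase reporter driven by Pax8 target thyroperoxidase promoter measured by SteadyGlo luminescence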
Sequence of Paired box protein Pax-8 (Q06710 whole entry): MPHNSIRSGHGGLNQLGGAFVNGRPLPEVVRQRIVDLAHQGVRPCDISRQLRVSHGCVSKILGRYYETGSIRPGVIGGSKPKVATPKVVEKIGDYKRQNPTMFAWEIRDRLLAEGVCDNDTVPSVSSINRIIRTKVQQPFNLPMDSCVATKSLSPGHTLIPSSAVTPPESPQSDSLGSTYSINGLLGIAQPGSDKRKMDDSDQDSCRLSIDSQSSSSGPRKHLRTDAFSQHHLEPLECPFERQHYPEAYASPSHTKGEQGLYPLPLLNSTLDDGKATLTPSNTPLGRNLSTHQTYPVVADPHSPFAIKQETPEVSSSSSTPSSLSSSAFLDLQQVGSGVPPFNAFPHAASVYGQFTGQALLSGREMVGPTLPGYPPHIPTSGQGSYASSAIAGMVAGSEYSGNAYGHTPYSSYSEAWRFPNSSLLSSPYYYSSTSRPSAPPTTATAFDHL

[11] = microbe, parasite or virus in culture; assay type: functional; details: Mycobacterium tuberculosis
[12] = inhibitors of SNCA 5'UTR-driven reporter translation, confirmation, H4 neuroglioma cells, luminescence (AID 1988); assay type: functional, cell-based
[13] = inhibitors of firefly luciferase expression or activity, dose response, H4 neuroglioma cells, luminescence (AID 1990); assay type: functional, cell-based
[14] = test system: INS1; test: beta cell apoptosis inhibitors, cytokine rescue, dose response, luminescence, retest (AID 449756); assay type: functional, cell-based; details: Rattus norvegicus;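 further: cell death triggered by IL-1 beta plus TNF-alpha plus IFN-gamma mixture; protective hits raise ATP signal compared with cytokine alone wells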
[15] = Luminescence Cell-Based Dose Response HTS to Identify Inhibitors of 5'UTR Stem-Loop Driven Prion Protein mRNA Translation in H4 Neuroglioblastoma Cells. [Related pubchem assays: 1827 (Project Summary), 1813 (Primary HTS)]; assay type: functional
[16] = test system: HEK293; test: inhibitors of LMP1-driven NF-kB reporter, dose response, cell-based, HEK293, luciferase, cherry-pick (AID 588343); assay type: functional; details: Homo sapiens

## O=C(CCN1C(=O)/C(=C/c2ccc(Cl)cc2)SC1=S)Nc1ccc(C(=O)O)cc1
[1]
  IC50: 2.64 µM (active)

## CN1CCN(c2cc(N3CCCCCC3)c(F)cc2[N+](=O)[O-])CC1
[2]
  IC50: > 100 µM (active)

## Cc1cc(C)c(-c2csc(NC(=O)CCCc3nc(O)c4ccccc4n3)n2)c(C)c1
[3]
  AC50: 5.38 µM (active)
[4]
  AC50: 2.97 µM (active)
[5]
  AC50: > 70 µM (inactive)

## Cc1ccc(O)c(NC(=O)CCC2CCCCC2)c1
[6]
  IC50: > 80 µM (inactive)

## CC(C)(C)OC(=O)NC1CCC(C(C)(C)C)CC1 (stereo not given)
[7]
  GI50: 30 µM (inactive)
[8]
  GI50: 45.4 µM (inactive)
[9]
  GI50: 15.9 µM (inactive)

## CC(C)CCCCCCCCCCCCC(=O)NCC(=O)NC1C(O)C(O)C(Nc2[nH]cnc3ncnc2-3)OC1C(O)CO (stereo not given)
[7]
  GI50: 0.00128 µM (active)
[8]
  GI50: 0.00531 µM (active)
[9]
  GI50: 0.000211 µM (active)

## CC1OC(CO)(n2cnc3c(N)ncnc32)C(O)C1O (stereo not given)
[7]
  GI50: > 100 µM (inactive)
[8]
  GI50: > 100 µM (inactive)
[9]
  GI50: > 100 µM (inactive)

## CCCCCCCCn1c2c(c(=N)c3c1CCC3)CCCC2
[10]
  AC50: 2.36 µM (active)
[11]
  CC50: 32.7 µM (active)
[12]
  EC50: 7.18 µM (active)
[13]
  EC50: 4.15 µM (active)
[6]
  IC50: 73.8 µM (inactive)
[14]
  AC50: < 0.195 µM (active)
[15]
  EC50: 32.4 µM (active)

## CC1Cc2ccccc2N1c1ncnc(N)c1[N+](=O)[O-] (stereo not given)
[16]
  AC50: 2.41 µM (active)

## CN(Cc1nccn1C)C(=O)c1cc(COc2ccc3ncccc3c2)on1
[3]
  AC50: 36.8 µM (active)
[4]
  AC50: 6.97 µM (active)
[5]
  AC50: > 70 µM (inactive)

## CC(=O)OC1C(O)C(C)OC(OC(=O)C2CCC3C(C2)OC2(CC(OC(=O)/C=C/c4ccccc4)C(C)CO2)C32CO2)C1OC1OC(C)C(O)C(O)C1O (stereo not given)
[7]
  GI50: 20.9 µM (inactive)
[8]
  GI50: 0.0348 µM (active)
[9]
  GI50: 0.306 µM (active)

## CCC/C=C/C=C/C(=O)OC1/C(=C/C(=O)OC)CC2CC(C(C)O)OC(=O)CC(O)CC3CC(OC(C)=O)C(C)(C)C(O)(CC4C/C(=C/C(=O)OC)CC(/C=C/C(C)(C)C1(O)O2)O4)O3 (stereo not given)
[9]
  GI50: 2.16 µM (inactive)
